Results as given in article PMC11240139, “Exploring the antitumor potential of novel quinoline derivatives via tubulin polymerization inhibition in breast cancer; design, synthesis and molecular docking” (RSC Advances, 2024).

Tests used:
Type in all cases: cell-based
HL-60(TB) (leukemia) = experiment: NCI-60 SRB cytotoxicity screen; conditions: Homo sapiens, single dose 10 μM, read-out: growth inhibition (GI%)
MOLT-4 (leukemia) = experiment: NCI-60 SRB cytotoxicity screen; conditions: Homo sapiens; MOLT-4, single dose 10 μM; read-out: growth inhibition (GI%)
[1] = system: HOP-92 (non-small cell lung cancer); experiment: NCI-60 SRB cytotoxicity screen; conditions: Homo sapiens; HOP-92, single dose 10 μM; read-out: growth inhibition (GI%)
[2] = system: NCI-H226 (non-small cell lung cancer); experiment: NCI-60 SRB cytotoxicity screen; conditions: Homo sapiens; NCI-H226, single dose 10 μM; read-out: growth inhibition (GI%)
[3] = system: NCI-H23 (non-small cell lung cancer); experiment: NCI-60 SRB cytotoxicity screen; conditions: Homo sapiens; NCI-H23, single dose 10 μM; read-out: growth inhibition (GI%)
[4] = system: NCI-H322M (non-small cell lung cancer); experiment: NCI-60 SRB cytotoxicity screen; conditions: Homo sapiens, single dose 10 μM, read-out: growth inhibition (GI%)
[5] = system: NCI-H460 (non-small cell lung cancer); experiment: NCI-60 SRB cytotoxicity screen; conditions: Homo sapiens; NCI-H460, single dose 10 μM; read-out: growth inhibition (GI%)
HCC-2998 (colon cancer) = experiment: NCI-60 SRB cytotoxicity screen; conditions: Homo sapiens; HCC-2998, single dose 10 μM; read-out: growth inhibition (GI%)
HCT-116 (colon cancer) = experiment: NCI-60 SRB cytotoxicity screen; conditions: Homo sapiens; HCT-116, single dose 10 μM; read-out: growth inhibition (GI%)
HT29 (colon cancer) = experiment: NCI-60 SRB cytotoxicity screen; conditions: Homo sapiens, HT-29; HT29, single dose 10 μM; read-out: growth inhibition (GI%)
SW-620 (colon cancer) = experiment: NCI-60 SRB cytotoxicity screen; conditions: Homo sapiens; SW-620, single dose 10 μM; read-out: growth inhibition (GI%)
SF-539 (CNS cancer) = experiment: NCI-60 SRB cytotoxicity screen; conditions: Homo sapiens; SF-539, single dose 10 μM; read-out: growth inhibition (GI%)
SNB-19 (CNS cancer) = experiment: NCI-60 SRB cytotoxicity screen; conditions: Homo sapiens; SNB-19, single dose 10 μM; read-out: growth inhibition (GI%)
U251 (CNS cancer) = experiment: NCI-60 SRB cytotoxicity screen; conditions: Homo sapiens, U-251; U251, single dose 10 μM; read-out: growth inhibition (GI%)
M14 (melanoma) = experiment: NCI-60 SRB cytotoxicity screen; conditions: Homo sapiens; M14, single dose 10 μM; read-out: growth inhibition (GI%)
MDA-MB-435 (melanoma) = experiment: NCI-60 SRB cytotoxicity screen; conditions: Homo sapiens, MDA-MB-435, read-out: growth inhibition (GI%);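 note: growth inhibition in percent at a single 10 µM dose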
SK-MEL-28 (melanoma) = experiment: NCI-60 SRB cytotoxicity screen; conditions: Homo sapiens; SK-MEL-28, single dose 10 μM; read-out: growth inhibition (GI%)
SK-MEL-5 (melanoma) = experiment: NCI-60 SRB cytotoxicity screen; conditions: Homo sapiens; SK-MEL-5, single dose 10 μM; read-out: growth inhibition (GI%)
OVCAR-3 (ovarian cancer) = experiment: NCI-60 SRB cytotoxicity screen; conditions: Homo sapiens; OVCAR-3, single dose 10 μM; read-out: growth inhibition (GI%)
OVCAR-4 (ovarian cancer) = experiment: NCI-60 SRB cytotoxicity screen; conditions: Homo sapiens; OVCAR-4, single dose 10 μM; read-out: growth inhibition (GI%)
786-0 (renal cancer) = experiment: NCI-60 SRB cytotoxicity screen; conditions: Homo sapiens; 786-0, single dose 10 μM; read-out: growth inhibition (GI%)
A498 (renal cancer) = experiment: NCI-60 SRB cytotoxicity screen; conditions: Homo sapiens; A498, single dose 10 μM; read-out: growth inhibition (GI%)
CAKI-1 (renal cancer) = experiment: NCI-60 SRB cytotoxicity screen; conditions: Homo sapiens; CAKI-1, single dose 10 μM; read-out: growth inhibition (GI%)
SN12C (renal cancer) = experiment: NCI-60 SRB cytotoxicity screen; conditions: Homo sapiens, single dose 10 μM, read-out: growth inhibition (GI%)
TK-10 (renal cancer) = experiment: NCI-60 SRB cytotoxicity screen; conditions: Homo sapiens; TK-10, single dose 10 μM; read-out: growth inhibition (GI%)
UO-31 (renal cancer) = experiment: NCI-60 SRB cytotoxicity screen; conditions: Homo sapiens; UO-31, single dose 10 μM; read-out: growth inhibition (GI%)
PC-3 (prostate cancer) = experiment: NCI-60 SRB cytotoxicity screen; conditions: PC-3, single dose 10 μM; read-out: growth inhibition (GI%)
MCF7 (breast cancer) = experiment: NCI-60 SRB cytotoxicity screen; conditions: Homo sapiens; MCF7, single dose 10 μM; read-out: growth inhibition (GI%)
[6] = system: MDA-MB-231/ATCC (breast cancer); experiment: NCI-60 SRB cytotoxicity screen; conditions: Homo sapiens, MDA-MB-231, read-out: growth inhibition (GI%);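 note: growth inhibition in percent at a single 10 µM dose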
[7] = system: MDA-MB-468 (breast cancer); experiment: NCI-60 SRB cytotoxicity screen; conditions: Homo sapiens; MDA-MB-468, single dose 10 μM; read-out: growth inhibition (GI%)
Outline: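 NCI-60 single-dose (10^−5 M) screen in MDA-MB-468 with SRB protein-stain read-out after 48 h exposure; cells TCA-fixed and absorbance read at 540 nm. Reported as GI%, with compounds meeting NCI activity criteria then run at five doses (0.01–100 μM).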

[8] = system: 60 cancer cell lines (NCI); experiment: NCI-60 single-dose screen, overall verdict over the panel; conditions: single dose 10 μM, whole panel
Outline: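 Compounds were tested at a single 10^−5 M dose across the NCI 60 cell line panel, with cells preincubated 24 h before treatment. Viability was measured by TCA fixation and sulforhodamine B staining, absorbance 540 nm. % cytotoxicity = [1 − (sample/negative control absorbance)] × 100.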

`CCc1cccc2cc(-c3cc(-c4ccc(Br)cc4)[nH]c(=O)c3C#N)c(Cl)nc12` [Compound 4e, 6-(4-Bromophenyl)-4-(2-chloro-8-ethylquinolin-3-yl)-2-oxo-1,2-dihydropyridine-3-carbonitrile] was tested, and the inhibition at 10 µM (HL-60(TB) (leukemia)) was under 10%, the inhibition at 10 µM (MOLT-4 (leukemia)) was under 10% and the inhibition at 10 µM [1] was under 10%. The inhibition at 10 µM [2] was under 10%, the inhibition at 10 µM [3] was under 10% and the inhibition at 10 µM [4] was under 10%. The inhibition at 10 µM [5] was under 10%, the inhibition at 10 µM (HCC-2998 (colon cancer)) was under 10% and the inhibition at 10 µM (HCT-116 (colon cancer)) was under 10%. The inhibition at 10 µM (HT29 (colon cancer)) was under 10%, the inhibition at 10 µM (SW-620 (colon cancer)) was under 10% and the inhibition at 10 µM (SF-539 (CNS cancer)) was under 10%. The inhibition at 10 µM (SNB-19 (CNS cancer)) was under 10%, the inhibition at 10 µM (U251 (CNS cancer)) was under 10% and the inhibition at 10 µM (M14 (melanoma)) was under 10%. For the same molecule, the inhibition at 10 µM (MDA-MB-435 (melanoma)) was under 10%, the inhibition at 10 µM (SK-MEL-28 (melanoma)) was under 10% and the inhibition at 10 µM (SK-MEL-5 (melanoma)) was 13%. The inhibition at 10 µM (OVCAR-3 (ovarian cancer)) was under 10%, the inhibition at 10 µM (OVCAR-4 (ovarian cancer)) was 10.8% and the inhibition at 10 µM (786-0 (renal cancer)) was under 10%. The inhibition at 10 µM (A498 (renal cancer)) was under 10%, the inhibition at 10 µM (CAKI-1 (renal cancer)) was 17.6% and the inhibition at 10 µM (SN12C (renal cancer)) was under 10%. It also gave an inhibition at 10 µM (TK-10 (renal cancer)) of under 10%, an inhibition at 10 µM (UO-31 (renal cancer)) of 17.8% and an inhibition at 10 µM (PC-3 (prostate cancer)) of under 10%. For the same molecule, the inhibition at 10 µM (MCF7 (breast cancer)) was 20.6%, the inhibition at 10 µM [6] was under 10% and the inhibition at 10 µM [7] was under 10%. The “cytotoxic activity over the cell lines (in words)” value [8] was “mild cytotoxic activity”.

`CCc1cccc2cc(C=CC(=O)c3ccc(Br)cc3)c(Cl)nc12` [Compound 3e, 1-(4-Bromophenyl)-3-(2-chloro-8-ethylquinolin-3-yl)prop-2-en-1-one] showed an inhibition at 10 µM (HL-60(TB) (leukemia)) of under 10%, an inhibition at 10 µM (MOLT-4 (leukemia)) of under 10% and an inhibition at 10 µM [1] of under 10%. It also gave an inhibition at 10 µM [2] of under 10%, an inhibition at 10 µM [3] of under 10% and an inhibition at 10 µM [4] of under 10%. The inhibition at 10 µM [5] was under 10%, the inhibition at 10 µM (HCC-2998 (colon cancer)) was under 10% and the inhibition at 10 µM (HCT-116 (colon cancer)) was under 10%. The inhibition at 10 µM (HT29 (colon cancer)) was under 10%, the inhibition at 10 µM (SW-620 (colon cancer)) was under 10% and the inhibition at 10 µM (SF-539 (CNS cancer)) was under 10%. The inhibition at 10 µM (SNB-19 (CNS cancer)) was under 10%, the inhibition at 10 µM (U251 (CNS cancer)) was under 10% and the inhibition at 10 µM (M14 (melanoma)) was under 10%. The inhibition at 10 µM (MDA-MB-435 (melanoma)) was under 10%, the inhibition at 10 µM (SK-MEL-28 (melanoma)) was under 10% and the inhibition at 10 µM (SK-MEL-5 (melanoma)) was under 10%. The inhibition at 10 µM (OVCAR-3 (ovarian cancer)) was under 10%, the inhibition at 10 µM (OVCAR-4 (ovarian cancer)) was under 10% and the inhibition at 10 µM (786-0 (renal cancer)) was under 10%. For the same molecule, the inhibition at 10 µM (A498 (renal cancer)) was under 10%, the inhibition at 10 µM (CAKI-1 (renal cancer)) was 12.8% and the inhibition at 10 µM (SN12C (renal cancer)) was under 10%. For the same molecule, the inhibition at 10 µM (TK-10 (renal cancer)) was under 10%, the inhibition at 10 µM (UO-31 (renal cancer)) was under 10% and the inhibition at 10 µM (PC-3 (prostate cancer)) was under 10%. The inhibition at 10 µM (MCF7 (breast cancer)) was under 10%, the inhibition at 10 µM [6] was under 10% and the inhibition at 10 µM [7] was under 10%. For the same molecule, the “cytotoxic activity over the cell lines (in words)” value [8] was “low cytotoxic activity”.
